Data published in patent publication US9938273B2 (Plexxikon Inc., priority 2015, dated 2018).

What was measured:
[1] = biological target: T1, BA/F3-FLT3-ITD + D835Y cells (Homo sapiens, UniProt P36888, D835Y, cells depend on it, form not given); test: Cell proliferation assay (CellTiter-Glo), engineered BA/F3 cells; type: cell-based, murine; conditions: BaF3 FLT3 ITD/D835Y cells, 3d-Growth; read-out: BaF3_FLT3 ITD/D835Y 3d-Growth: IC50
T1 sequence (P36888 1-993 D835Y): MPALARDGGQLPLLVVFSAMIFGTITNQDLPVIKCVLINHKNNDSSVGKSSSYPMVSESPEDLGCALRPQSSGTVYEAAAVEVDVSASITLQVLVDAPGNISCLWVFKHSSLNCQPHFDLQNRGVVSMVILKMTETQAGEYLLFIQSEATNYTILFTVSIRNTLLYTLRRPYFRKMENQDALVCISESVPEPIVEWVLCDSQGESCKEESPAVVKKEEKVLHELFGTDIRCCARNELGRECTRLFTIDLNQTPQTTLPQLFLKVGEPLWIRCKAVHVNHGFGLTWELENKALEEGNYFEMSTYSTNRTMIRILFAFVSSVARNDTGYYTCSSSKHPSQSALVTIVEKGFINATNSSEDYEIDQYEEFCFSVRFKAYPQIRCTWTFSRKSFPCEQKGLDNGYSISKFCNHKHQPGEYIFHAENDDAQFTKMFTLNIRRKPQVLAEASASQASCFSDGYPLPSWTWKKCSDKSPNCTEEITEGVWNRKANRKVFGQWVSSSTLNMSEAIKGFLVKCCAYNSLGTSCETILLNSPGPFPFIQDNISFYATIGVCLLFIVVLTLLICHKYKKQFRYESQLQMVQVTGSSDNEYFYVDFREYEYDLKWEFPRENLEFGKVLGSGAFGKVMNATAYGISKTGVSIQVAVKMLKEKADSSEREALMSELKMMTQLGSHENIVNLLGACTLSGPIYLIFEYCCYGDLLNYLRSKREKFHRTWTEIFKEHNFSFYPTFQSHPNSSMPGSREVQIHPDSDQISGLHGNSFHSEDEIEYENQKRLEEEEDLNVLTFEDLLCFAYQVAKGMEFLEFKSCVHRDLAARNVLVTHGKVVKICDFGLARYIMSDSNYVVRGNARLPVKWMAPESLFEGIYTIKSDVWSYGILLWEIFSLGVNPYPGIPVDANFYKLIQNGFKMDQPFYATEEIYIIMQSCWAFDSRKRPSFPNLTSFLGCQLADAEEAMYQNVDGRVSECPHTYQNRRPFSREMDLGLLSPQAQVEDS
Outline: (§1)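 MOLM-14 AML cells (endogenous FLT3 ITD, AC220-selected D835Y or F691L variants) or murine Ba/F3 expressing full-length FLT3 ITD/D835Y, without IL-3 for FLT3 dependence, 1×10^4 cells/well. Eight-point 1:3 series from 1 μM final, 0.2% DMSO, 3 days at 37 °C. CellTiter-Glo luminescence (ATP) gave IC50.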

[2] = test system: MOLM-14 F691L cells, FLT3 ITD and FLT3 F691L; test: Cell proliferation assay (CellTiter-Glo), MOLM-14 F691L; type: cell-based; conditions: Homo sapiens, 72 h, 3d-Growth, GMean
Outline: as §1

GI50 [1] [µM]	IC50 [2] [µM]	Structure (SMILES)
0.0001 to 10	0.0001 to 10	C#Cc1cc2cc(-c3cccc(S(=O)(=O)NC4CC4)c3)cnc2[nH]1 [Compound P-0004, N-cyclopropyl-3-(2-ethynyl-1H-pyrrolo[2,3-b]pyridin-5-yl)benzenesulfonamide]
0.0001 to 10	0.0001 to 10	CN(C)CC#Cc1cc2cc(-c3cccc(S(=O)(=O)NC4CC4)c3)cnc2[nH]1 [Compound P-0009, N-cyclopropyl-3-[2-[3-(dimethylamino)prop-1-ynyl]-1H-pyrrolo[2,3-b]pyridin-5-yl]benzenesulfonamide]
0.0001 to 10	0.0001 to 10	O=S(=O)(NC1CC1)c1cccc(-c2cnc3[nH]c(C#CC4CCCCC4)cc3c2)c1 [Compound P-0010, 3-[2-(2-cyclohexylethynyl)-1H-pyrrolo[2,3-b]pyridin-5-yl]-N-cyclopropyl-benzenesulfonamide]
0.0001 to 10	0.0001 to 10	CNC1CCN(C(=O)c2cccc(-c3cnc4[nH]c(-c5cn(C)nc5C)cc4c3)n2)C1 (centres unmarked) [Compound P-0049, [6-[2-(1,3-dimethylpyrazol-4-yl)-1H-pyrrolo[2,3-b]pyridin-5-yl]-2-pyridyl]-[3-(methylamino)pyrrolidin-1-yl]methanone]
0.0001 to 10	0.0001 to 10	c1ccc(-c2cc3cc(-c4cccc(OC5CCNCC5)n4)cnc3[nH]2)cc1 [Compound P-0050, 2-phenyl-5-[6-(4-piperidyloxy)-2-pyridyl]-1H-pyrrolo[2,3-b]pyridine]
0.0001 to 10	0.0001 to 10	N[C@H]1CCN(C(=O)c2ncc(-c3cnc4[nH]c(-c5ccccc5)cc4c3)s2)C1 [Compound P-0054, [(3S)-3-aminopyrrolidin-1-yl]-[5-(2-phenyl-1H-pyrrolo[2,3-b]pyridin-5-yl)thiazol-2-yl]methanone]
0.0001 to 10	0.0001 to 10	O=C(Nc1cccc(-c2cnc3[nH]c(-c4ccccc4)cc3c2)n1)C1CNC1 [Compound P-0084, N-[6-(2-phenyl-1H-pyrrolo[2,3-b]pyridin-5-yl)-2-pyridyl]azetidine-3-carboxamide]
0.0001 to 10	0.0001 to 10	O=C(c1cccc(-c2cnc3[nH]c(-c4ccccc4)cc3c2)n1)N1CCC(NC2CC2)C1 (centres unmarked) [Compound P-0085, [3-(cyclopropylamino)pyrrolidin-1-yl]-[6-(2-phenyl-1H-pyrrolo[2,3-b]pyridin-5-yl)-2-pyridyl]methanone]
0.0001 to 10	0.0001 to 10	O=S(=O)(NC1CCNCC1)c1cccc(-c2cnc3[nH]c(-c4ccccc4)cc3c2)n1 [Compound P-0086, 6-(2-phenyl-1H-pyrrolo[2,3-b]pyridin-5-yl)-N-(4-piperidyl)pyridine-2-sulfonamide]
0.0001 to 10	0.0001 to 10	NC1CCC(NS(=O)(=O)c2cccc(-c3cnc4[nH]c(-c5ccccc5)cc4c3)n2)CC1 (centres unmarked) [Compound P-0088, N-(4-aminocyclohexyl)-6-(2-phenyl-1H-pyrrolo[2,3-b]pyridin-5-yl)pyridine-2-sulfonamide]
0.0001 to 10	0.0001 to 10	N#CC1CCN(C(=O)c2cccc(-c3cnc4[nH]c(-c5ccc(F)cc5)cc4c3)n2)C1 (centres unmarked) [Compound P-0116, 1-[6-[2-(4-fluorophenyl)-1H-pyrrolo[2,3-b]pyridin-5-yl]pyridine-2-carbonyl]pyrrolidine-3-carbonitrile]
–	0.0001 to 10	CC(C)(C#N)NC(=O)c1cccc(-c2cnc3[nH]c(-c4cnc(C(C)(C)O)nc4)cc3c2)n1 [Compound P-0211, N-(1-cyano-1-methyl-ethyl)-6-[2-[2-(1-hydroxy-1-methyl-ethyl)pyrimidin-5-yl]-1H-pyrrolo[2,3-b]pyridin-5-yl]pyridine-2-carboxamide]
